Results from US5037957A, “Cysteine proteinase inhibitor” (priority 1987, dated 1991).

How the values were obtained:
papain = target: T1, papain (Carica papaya, UniProt P00784); type: biochemical; conditions: for apparent rate constant (k'+2, second order) for inactivation of papain: 12-fold molar excess of inhibitor, papain 2×10^-8 M, pH 6.5, 22° C
T1 construct: purchased Sigma type III
T1 sequence (P00784 134-345): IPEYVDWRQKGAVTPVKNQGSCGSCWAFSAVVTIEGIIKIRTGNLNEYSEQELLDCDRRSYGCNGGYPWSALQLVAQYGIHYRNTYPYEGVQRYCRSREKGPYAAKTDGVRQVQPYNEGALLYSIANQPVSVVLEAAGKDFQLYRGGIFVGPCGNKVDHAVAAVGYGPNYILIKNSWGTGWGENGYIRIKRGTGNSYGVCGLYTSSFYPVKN
Method: Activity determination of papain was performed according to Barrett et al (ibid.), using Z-Phe-Arg-NHMec as substrate in 0.1M phosphate buffer, pH 6.5/1 mM DTT/1 mM EDTA at room temperature (22° C). All test dilutions were performed in 0.01% Brij 35. The reaction was started by substrate addition (20 μM final concentration) and stopped 10 minutes later by the addition of an equal volume of 0.1M NaCH2 Cl/NaAc, pH 4.3. Released fluorogen product was measured in a Perkin-Elmer MPF-43A spectrofluorimeter (excitation 360 nm, emission 460 nm) against a blank with the same contents as the test solution where chloroacetate had been added before the addition of enzyme/substrate.
The molar active concentration of the papain solution used was determined by titration with E-64 (Barrett et al., ibid.). Stock solutions (1 mM) of LVG and VG were prepared by weighing 10 μmol of the respective peptidyl diazomethyl ketone which was thereafter dissolved in 500 μl acetonitrile (LVG) or 100 μl DMSO (VG), whereupon the volumes were adjusted to 10 ml with water. The exact concentration of peptidyl diazomethyl ketone was experimentally established, such that the reaction proceeded within a reasonable time with regard to the measuring technique used. Enzyme (2×10^-8 M final concentration) and peptidyl diazomethyl ketone were mixed at zero time. 25 μl samples were withdrawn at suitable times (15 s-10 min.) and therafter immediately added to mixtures for enzyme activity determination (see above). The dilution then obtained efficiently stopped continued reaction between enzyme and peptidyl diazomethyl ketone.
Evaluation of experimental data was made in the manner described by Barret et al. (ibid.), where
When i>>e, the following equation applies to the kinetics of inactivation: [formula] where ao is enzyme activity (here measured as amount of released fluorogen product from the substrate Z-Phe-Arg-NHMec) at zero time, and at is enzyme activity at time t.
The apparent rate constant k'+2 (second order) for the inactivation in the scheme
was caculated as kobs /i.
Papain was incubated with LVG and VG in a 12-fold molar excess, and samples were withdrawn at different times for determining residual enzyme activity.

group-A streptococci [1] = conditions: 0.2 mg LVG intraperitoneally 45 min after lethal dose of group-A streptococci; five mice per group; none of the five controls alive
Method: Ten mice were injected intraperitoneally with lethal doses of group-A streptococci. Five of them received after a period of 45 min. 0.2 mg LVG in 0.5 ml 1% dimethyl sulfoxide in physiological sterile saline by a second intraperitoneal injection.

trypsin = trypsin (Bos taurus, UniProt P00760); conditions: 250-fold molar excess, even after incubation for one hour
Method: Trypsin activity at pH 7.5 was measured at room temperature (22° C.) on samples in buffer with a final concentration of 25 mN Tris/25 mM CaCl2 The reaction was started by the addition of Bz-DL-Arg-pNA to 2.5 mN final concentration and stopped after 10 minutes by the addition of an equal volume of 50% (v/v) HAc. Released paranitroaniline was meausred spectrophotometrically (Perkin-Elmer 550S) at 405 nm. Absorbancy values for blank (HAc addition before enzyme/substrate addition) were subtracted before evaluation.

streptococcal proteinase = streptococcal proteinase (Streptococcus pyogenes serotype M1, UniProt P0C0J1); conditions: proteinase 0.0625 mg/ml, 5 min preincubation at 37° C, azocasein 15 min
Method: The isolated streptococcal proteinase (15 mg/ml) was diluted to 0.0625 mg/ml with 0.4M phosphate buffer, pH 6.5/4 mM EDTA/4 mM DTT and then activated by incubation at 37° C. for two hours. To a constant volume of the active streptococcal proteinase was thereafter added a constant volume of LVG solutions with increasing LVG concentration. After incubation for 5 min. at 37° C., the substrate azocasein was added and after additional incubation for exactly 15 min. at 37° C., the reaction was stopped by the addition of 20% TCA (trichloroacetic acid). The samples were centrifuged and the absorbancy of the supernatant was read at 366 nm.

human calpain = human calpain (Homo sapiens, UniProt P07384); conditions: calpain 2.5 μg/ml, 30 min at 37° C, pH 7.5
Method: Isolated human calpain (0.15 mg/ml) in 20 mM Tris buffer, pH 7.5/5 mM CaCl2 /6 mM dithiothreitol was supplied with a substrate (0.4% casein in 0.1 M imidazole buffer, pH 7.5/5 mM CaCl2 /6 mM dithiothreitol) and different amounts of LVG. After incubation for 30 min. at 37° C., the reaction was stopped by the addition of trichloroacetic acid to a final concentration of 2.5%, and the samples were centrifuged, whereupon the absorption of the supernatant at 280 nm was measured.

group-A streptococci [2] = test system: group-A streptococci
Method: Group-A streptococci were cultured on blood agar discs as in routine diagnosis for determining sensitivity to antibiotics. The discs applied on the culture gel and used for supplying different types of known antibiotics were this time soaked instead with 20 μl of a solution having an LVG concentration of 1 mM. […] (MIC=minimal inhibiting concentration).

N-benzyloxycarbonyl-leucyl-valyl-glycine diazomethyl ketone [LVG]
apparent rate constant (k'+2, second order) for inactivation of papain (papain): 300000 M⁻¹ s⁻¹
effectiveness as papain inhibitor relative to VG (papain; LVG versus VG): about 100 times
mice still alive after one day (group-A streptococci [1]): five
inhibition of trypsin enzyme activity (trypsin): no inhibition
LVG concentration sufficient to give total inhibition of streptococcal proteinase activity (streptococcal proteinase): 10 µM
final concentration of LVG giving complete inhibition of calpain (human calpain): 1 µM
effect on bacterial growth when a molar excess of isolated streptococcal proteinase was added to the LVG solution (group-A streptococci [2]; LVG solution premixed with molar excess of streptococcal proteinase before application to cultures): no effect on the bacterial growth
inhibition of growth of group-A streptococci on blood agar (group-A streptococci [2]; discs soaked with 20 μl of 1 mM LVG, all tested isolates and reference strains): effectively inhibited in growth
MIC (minimal inhibiting concentration) for group-A streptococci (group-A streptococci [2]; growth in free solution): about 1 μg/l

N-t-butyloxycarbonyl-valyl-glycine diazomethyl ketone [VG]
apparent rate constant (k'+2, second order) for inactivation of papain (papain): 5000 M⁻¹ s⁻¹
inhibition of trypsin enzyme activity (trypsin): no inhibition

synthetic peptide corresponding to position 4-21 in cystatin C: synthetic peptide corresponding to position 4-21 in cystatin C (synthesized on request by Ferring AB, Malmo, Sweden) (GKPPRLVGGPMDASVEEE; UniProt P01034 30-47, looked up, fragment) [reference compound]
inhibition of papain (papain): does not at all inhibit
behaviour as substrate for papain (papain; cleaved at the glycine-glycine peptide bond): excellent substrate
